Read-outs that look alike come from different tables or passages of the source.
Key:
[1] = biological target: T1, human somatostatin receptor subtype 2 (Homo sapiens, UniProt P30874); test: cAMP assay for SST2R (inhibition of cAMP via human SST2 receptor); format: cell-based; settings: Table B, read-out: SST2 potency
T1 construct: expressed in transfected cells
Description: cAMP Assay Protocol for SST2R:

[2] = biological target: T2, human somatostatin receptor subtype 3 (Homo sapiens, UniProt P32745); test: cAMP assay for SST3R (inhibition of cAMP via human SST3 receptor); format: cell-based; settings: from inhibition of cAMP via human SST5 receptor and human SST3 receptor
T2 construct: expressed in transfected cells
T2 sequence (P32745 whole entry): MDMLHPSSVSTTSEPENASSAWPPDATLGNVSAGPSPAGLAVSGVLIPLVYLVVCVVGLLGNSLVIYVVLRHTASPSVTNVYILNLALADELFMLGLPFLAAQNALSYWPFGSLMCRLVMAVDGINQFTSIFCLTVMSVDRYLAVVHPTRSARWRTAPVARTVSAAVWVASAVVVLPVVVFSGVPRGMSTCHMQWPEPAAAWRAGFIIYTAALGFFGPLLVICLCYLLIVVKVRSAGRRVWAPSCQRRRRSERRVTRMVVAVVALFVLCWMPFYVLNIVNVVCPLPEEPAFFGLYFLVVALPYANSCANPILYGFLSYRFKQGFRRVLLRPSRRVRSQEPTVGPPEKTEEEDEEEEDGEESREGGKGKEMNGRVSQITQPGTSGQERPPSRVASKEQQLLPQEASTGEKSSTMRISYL
Description: cAMP Assay Protocol for SST3R:

[3] = Liver microsomal stability assay; format: in vitro ADME; settings: both sexes, human, pooled human liver microsomes; read-out: HLM Stability t½
Experimental: Example B-2: Liver Microsomal Stability Assay Protocol
The in vitro stabilities of compounds of interest were determined for various species using pooled male and female human, pooled male Sprague-Dawley rat, pooled male Cynomolgus monkey, and pooled male Beagle dog liver microsomes at microsomal protein concentrations of 0.5 mg/mL. Incubations were carried out in a potassium phosphate buffer (50 mM). The NADPH-generating system was composed of NADP+ (1 mM), magnesium chloride (3 mM), EDTA (1 mM), glucose-6-phosphate (5 mM) and glucose-6-phosphate dehydrogenase (1 Unit/mL) for all experiments. Compounds of interest in DMSO/acetonitrile were added to achieve a final incubation concentration of 1 μM (final DMSO content was 0.1% v/v and final acetonitrile content was 0.9%). The final incubation volume was 400 μL. Incubations were conducted at 37° C. for 0, 5, 10, 20, 40 and 60 minutes in a shaking water bath and terminated by removing 50 μL of incubation mixture and adding to 100 μL of ice cold acetonitrile containing internal standard. Following precipitation by centrifugation at 3500 rpm and 4° C. for 30 minutes, compounds of interest and internal standard were analyzed in the resultant supernatant using a multiple reaction monitoring (MRM) LC-MS/MS method. MS conditions were optimized for each analyte.
(§1) Table E illustrates representative human liver microsomal stability and time dependent CYP2D6 inhibition (TDI) of exemplary compounds.

[4] = biological target: T3, Cytochrome P450 (CYP) 2D6 enzyme (Homo sapiens, UniProt P10635); test: Cytochrome P450 (CYP) 2D6 enzyme time dependent inhibition (TDI) assay; format: in vitro ADME; settings: human liver microsomes
T3 construct: using pooled male and female human liver microsomes; from tissue; host or cells: pooled male and female human liver microsomes
T3 sequence (P10635 whole entry): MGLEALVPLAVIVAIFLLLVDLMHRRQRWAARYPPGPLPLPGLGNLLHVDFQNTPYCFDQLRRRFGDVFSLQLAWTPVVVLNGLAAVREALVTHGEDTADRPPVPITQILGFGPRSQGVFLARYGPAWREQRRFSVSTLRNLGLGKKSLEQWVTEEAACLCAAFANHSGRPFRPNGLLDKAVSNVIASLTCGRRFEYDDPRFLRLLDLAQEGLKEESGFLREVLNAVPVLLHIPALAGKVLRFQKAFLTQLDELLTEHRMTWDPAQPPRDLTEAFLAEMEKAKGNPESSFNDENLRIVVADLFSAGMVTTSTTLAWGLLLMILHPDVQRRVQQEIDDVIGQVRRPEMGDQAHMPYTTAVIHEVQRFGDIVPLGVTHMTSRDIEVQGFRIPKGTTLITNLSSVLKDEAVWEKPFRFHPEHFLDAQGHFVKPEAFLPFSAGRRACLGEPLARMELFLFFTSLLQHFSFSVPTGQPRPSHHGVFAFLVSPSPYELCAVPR
Experimental: Example B-3: Cytochrome P450 (CYP) 2D6 Enzyme Time Dependent Inhibition (TDI) Assay Protocol
The NADPH-generating system mix was composed of potassium phosphate buffer pH 7.4 (50 mM), NADP+ (1 mM), magnesium chloride (3 mM), EDTA (1 mM), glucose-6-phosphate (5 mM), glucose-6-phosphate dehydrogenase (1 Unit/mL), human liver microsomes (0.1 mg/mL) and water. Compounds of interest in DMSO serial diluted to six different concentrations (final DMSO content of 0.1% v/v) were added to the NADPH-generating system. CYP 2D6 substrate Dextromethorphan was added at a final incubation concentration of 5 μM. The final incubation volume was 200 μL. Incubations were conducted at 37° C. for 10 minutes in a shaking water bath to evaluate the drug candidates as […] of CYP 2D6. In a separate test plate, drug candidates were pre-incubated at 37° C. for 30 minutes in a shaking water bath in NADPH-generating system mix in the absence of Dextromethorphan substrate to allow for the formation of metabolites. This plate was removed from the water bath and placed on ice for 5 minutes. Dextromethorphan substrate was then added and the plate was incubated at 37° C. for 10 minutes in a shaking water bath to determine if any metabolites formed during the 30 minute pre-incubation inhibit the CYP 2D6 enzyme. All incubations were terminated by removing 50 μL of incubation mixture and adding to 200 μL of ice cold acetonitrile containing internal standard. Following precipitation by centrifugation at 3500 rpm and 4° C. for 30 minutes, the resultant supernatant were analyzed by using a multiple reaction monitoring (MRM) LC-MS/MS method detecting for internal standard and the CYP 2D6 enzyme mediated Dextromethorphan O-demethylation metabolite Dextrorphan and IC50 values were determined.
as §1

[5] = biological target: human somatostatin receptor subtype 5 (Homo sapiens, UniProt P35346); test: cAMP assay for SST5R (inhibition of cAMP via human SST5 receptor); settings: for Fold selectivity for SST5 vs SST2: SST5 over SST2, class symbols
Chain of human somatostatin receptor subtype 5 (P35346 whole entry): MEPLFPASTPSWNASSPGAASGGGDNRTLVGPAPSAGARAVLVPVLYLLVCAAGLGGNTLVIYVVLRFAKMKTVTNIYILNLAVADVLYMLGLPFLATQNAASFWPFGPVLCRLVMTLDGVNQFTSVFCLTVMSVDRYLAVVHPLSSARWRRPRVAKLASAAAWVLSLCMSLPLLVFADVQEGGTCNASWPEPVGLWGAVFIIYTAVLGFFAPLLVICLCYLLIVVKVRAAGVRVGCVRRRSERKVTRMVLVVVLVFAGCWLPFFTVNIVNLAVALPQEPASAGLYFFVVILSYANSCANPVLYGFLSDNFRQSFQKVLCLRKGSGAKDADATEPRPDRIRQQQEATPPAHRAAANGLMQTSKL

[6] = biological target: T4, human somatostatin receptor subtype 4 (Homo sapiens, UniProt P31391); test: cAMP assay for hSST4R (inhibition of cAMP via human SST4 receptor); format: cell-based; settings: from inhibition of cAMP via human SST5 receptor and human SST4 receptor
T4 construct: expressed in transfected cells
T4 sequence (P31391 whole entry): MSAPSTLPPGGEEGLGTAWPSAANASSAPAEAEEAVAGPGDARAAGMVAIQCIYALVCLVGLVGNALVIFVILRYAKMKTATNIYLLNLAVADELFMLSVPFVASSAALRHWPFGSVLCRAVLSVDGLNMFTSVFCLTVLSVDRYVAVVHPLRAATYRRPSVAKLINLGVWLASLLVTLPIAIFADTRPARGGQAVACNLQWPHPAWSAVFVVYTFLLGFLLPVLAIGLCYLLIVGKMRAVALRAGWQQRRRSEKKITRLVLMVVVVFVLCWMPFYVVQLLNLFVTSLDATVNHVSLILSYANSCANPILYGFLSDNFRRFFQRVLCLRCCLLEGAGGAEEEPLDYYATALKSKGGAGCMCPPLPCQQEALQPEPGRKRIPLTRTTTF
Description: cAMP Assay Protocol hSST4R:

[7] = t = 0 min pre-incubation, read-out: CYP2D6 inhibition, IC50 (μM) t = 0 min
[8] = t = 30 min pre-incubation, read-out: CYP2D6 inhibition, IC50 (μM) t = 30 min
[9] = read-out: SST5 potency, inhibition of cAMP via human SST5 receptor, Table B

T1 sequence (P30874 whole entry): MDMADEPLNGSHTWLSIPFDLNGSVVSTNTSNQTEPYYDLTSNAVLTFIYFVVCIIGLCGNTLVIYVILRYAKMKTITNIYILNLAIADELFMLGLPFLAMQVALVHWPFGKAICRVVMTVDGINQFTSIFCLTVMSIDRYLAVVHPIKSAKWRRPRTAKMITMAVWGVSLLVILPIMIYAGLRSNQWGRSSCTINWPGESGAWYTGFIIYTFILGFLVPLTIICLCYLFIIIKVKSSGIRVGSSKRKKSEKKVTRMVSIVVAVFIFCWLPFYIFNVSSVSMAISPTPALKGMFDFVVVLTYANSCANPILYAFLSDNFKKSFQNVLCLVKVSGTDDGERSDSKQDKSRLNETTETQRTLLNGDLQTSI

| Structure (SMILES) | EC50 [1] [nM] | Fold selectivity for SST5 vs SST3 [2] [fold] | half-life at 1 μM [3] [min] | IC50 [4, 7] [µM] | IC50 [4, 8] [µM] | EC50 [5] [nM] | Fold selectivity for SST5 vs SST2 [5] | EC50 [5, 9] [nM] | Fold selectivity for SST5 vs SST4 [6] [fold] |
| --- | --- | --- | --- | --- | --- | --- | --- | --- | --- |
| Cc1ccnc2[nH]c(-c3cncc(-c4ccc(F)c(C#N)c4)c3N3CC[C@](C)(N)C3)nc12 [Compound 2-154, 5-{4-[(3S)-3-amino-3-methylpyrrolidin-1-yl]-5-{7-methyl-1H-imidazo[4,5-b]pyridin-2-yl}pyridin-3-yl}-2-fluorobenzonitrile] | 10 to 100 | 118 | > 693 | > 10 | > 10 | < 10 | ++ (++=100 to 499) | < 10 |  |
| Cc1cc(-c2cncc(-c3nc4c(F)cccc4[nH]3)c2N2CC[C@](C)(N)C2)ccn1 [Compound 2-178, (3S)-1-[5-(4-fluoro-1H-1,3-benzodiazol-2-yl)-2′-methyl-[3,4′-bipyridin]-4-yl]-3-methylpyrrolidin-3-amine] | > 1000 | 147 | 231 | > 10 | 9.7 | < 10 | ++ (++=100 to 499) | < 10 |  |
| Cc1cccc2[nH]c(-c3cncc(-c4cc(F)cc(C#N)c4)c3N3CC[C@H](N)C3)nc12 [Compound 2-34, 3-{4-[(3S)-3-aminopyrrolidin-1-yl]-5-(4-methyl-1H-1,3-benzodiazol-2-yl)pyridin-3-yl}-5-fluorobenzonitrile] |  |  | > 693 | > 10 | > 10 |  |  |  |  |
| COc1cc(-c2cncc(-c3nc4nccc(C)c4[nH]3)c2N2CC[C@](C)(N)C2)ccc1F [Compound 2-189, (3S)-1-[3-(4-fluoro-3-methoxyphenyl)-5-{7-methyl-1H-imidazo[4,5-b]pyridin-2-yl}pyridin-4-yl]-3-methylpyrrolidin-3-amine] | 10 to 100 | 27 | > 693 | > 10 | > 10 | < 10 | ++ (++=100 to 499) | < 10 |  |
| Cc1ccnc2nc(-c3cncc(-c4ccc(F)c(F)c4)c3N3CC[C@](C)(N)C3)[nH]c12 [Compound 2-190, (3S)-1-[3-(3,4-difluorophenyl)-5-{7-methyl-1H-imidazo[4,5-b]pyridin-2-yl}pyridin-4-yl]-3-methylpyrrolidin-3-amine] | 10 to 100 | 16 | 139 | > 10 | > 10 | < 10 | + (+=10 to 99) | < 10 |  |
| COc1cc(-c2cncc(-c3nc4c(F)cccc4[nH]3)c2N2CC[C@](C)(N)C2)ccn1 [Compound 2-187, (3S)-1-[5-(4-fluoro-1H-1,3-benzodiazol-2-yl)-2′-methoxy-[3,4′-bipyridin]-4-yl]-3-methylpyrrolidin-3-amine] | 100 to 1000 | 93 | 41 | > 10 | 2.9 | < 10 | ++ (++=100 to 499) | < 10 |  |
| CC(N)C1CN(c2c(-c3ccc(F)c(C#N)c3)cncc2-c2nc3cc(F)cc(F)c3[nH]2)C1 (stereo not shown) [Compound 1-65, 5-{4-[3-(1-aminoethyl)azetidin-1-yl]-5-(4,6-difluoro-1H-1,3-benzodiazol-2-yl)pyridin-3-yl}-2-fluorobenzonitrile] | 100 to 1000 | >1000 |  |  |  | < 10 | +++ (+++=≥500) | < 10 | 384 |
| C[C@]1(N)CCN(c2c(-c3ccc(F)c(C#N)c3)cncc2-c2nc3cccc(C#N)c3[nH]2)C1 [Compound 2-171, 2-{4-[(3S)-3-amino-3-methylpyrrolidin-1-yl]-5-(3-cyano-4-fluorophenyl)pyridin-3-yl}-1H-1,3-benzodiazole-7-carbonitrile] | 100 to 1000 | 183 |  |  |  | < 10 | +++ (+++=≥500) | < 10 | 18 |
| CCC(N)C1CN(c2c(-c3cc(C)cc(F)c3)cncc2-c2nc3cc(F)cc(F)c3[nH]2)C1 (stereo not shown) [Compound 1-51, 1-{1-[3-(4,6-difluoro-1H-1,3-benzodiazol-2-yl)-5-(3-fluoro-5-methylphenyl)pyridin-4-yl]azetidin-3-y}propan-1-amine] | > 1000 | 200 |  |  |  | < 10 | +++ (+++=≥500) | < 10 | 812 |
| Cc1ccc(F)c2[nH]c(-c3cncc(-c4cc(F)cc(C#N)c4)c3N3CC[C@H](N)C3)nc12 [Compound 2-63, 3-{4-[(3S)-3-aminopyrrolidin-1-yl]-5-(7-fluoro-4-methyl-1H-1,3-benzodiazol-2-yl)pyridin-3-yl}-5-fluorobenzonitrile] | 100 to 1000 | 43 |  |  |  | < 10 | +++ (+++=≥500) | < 10 | 18 |
| C[C@]1(N)CCN(c2c(-c3cccc(C#N)c3)cncc2-c2nc3c(F)cccc3[nH]2)C1 [Compound 2-200, 3-{4-[(3S)-3-amino-3-methylpyrrolidin-1-yl]-5-(4-fluoro-1H-1,3-benzodiazol-2-yl)pyridin-3-yl}benzonitrile] | 100 to 1000 | 159 |  |  |  | < 10 | +++ (+++=≥500) | < 10 | 136 |
| Cc1ccc(F)c2nc(-c3cncc(-c4cccc(C#N)c4)c3N3CC[C@H](N)C3)[nH]c12 [Compound 2-101, 3-{4-[(3S)-3-aminopyrrolidin-1-yl]-5-(7-fluoro-4-methyl-1H-1,3-benzodiazol-2-yl)pyridin-3-yl}benzonitrile] | 100 to 1000 | 42 |  |  |  | < 10 | +++ (+++=≥500) | < 10 | 11 |

From US11608335B2, “Somatostatin modulators and uses thereof” (CRINETICS PHARMACEUTICALS, INC., priority 2018, dated 2023)
